Data on one compound can be found in publication PMC10196831, “Therapeutic effect of ultra-long-lasting human C-peptide delivery against hyperglycemia-induced neovascularization in diabetic retinopathy” (Theranostics, 2023).

The conditions of series [1]: in vivo; cited from earlier work.
Series [2] is described as follows: Intraocular C-peptide levels by human C-peptide ELISA after intravitreal injection. It counts as in vivo, C57BL/6 mice. The settings on record: C57BL/6, mouse, 1.2 ug, single intravitreal injection of equimolar K9-C-peptide (20 μg) or human C-peptide (1.2 μg), whole eyeball lysate, 50 kDa cutoff filtrate, n = 6, read-out: intraocular human C-peptide level at 1 day after injection. As to the method: To analyze the levels of C-peptide released from intravitreal K9-C-peptide depots, mice were anesthetized with 3% isoflurane and intravitreally injected with a total volume of 2 μL containing 0.6 mg/mL (1.2 μg) C-peptide or 10 mg/mL (20 μg) K9-C-peptide. Proteins were extracted from whole eyeballs using lysis buffer containing 50 mmol/L Tris (pH 7.5), 150 mmol/L sodium chloride, 1% Triton X-100, protease inhibitor cocktail (Roche, Basel, Switzerland), 25 mmol/L β-glycerophosphate, and 2 mmol/L sodium orthovanadate. The lysates were centrifuged at 14,000 rpm for 15 min, and then the supernatants were centrifuged at 8,000 rpm for 10 min using Amicon® Ultra 4 mL centrifugal filters with a molecular weight cutoff of 50 kDa (MilliporeSigma). C-peptide levels in the filtered supernatants (n = 6) were measured using a human C-peptide ELISA kit (MilliporeSigma) according to the manufacturer's protocol.
Background: An ELISA detects its analyte on a solid surface through an enzyme-linked reagent.

For `CC(C)C[C@H](NC(=O)[C@H](C)NC(=O)[C@H](CC(C)C)NC(=O)[C@@H]1CCCN1C(=O)[C@H](CCC(N)=O)NC(=O)[C@H](CC(C)C)NC(=O)[C@H](CO)NC(=O)CNC(=O)[C@H](C)NC(=O)CNC(=O)[C@@H]1CCCN1C(=O)CNC(=O)CNC(=O)CNC(=O)[C@H](CC(C)C)NC(=O)[C@H](CCC(=O)O)NC(=O)[C@@H](NC(=O)[C@H](CCC(N)=O)NC(=O)CNC(=O)[C@@H](NC(=O)[C@H](CCC(N)=O)NC(=O)[C@H](CC(C)C)NC(=O)[C@H](CC(=O)O)NC(=O)[C@H](CCC(=O)O)NC(=O)[C@H](C)NC(=O)[C@@H](N)CCC(=O)O)C(C)C)C(C)C)C(=O)N[C@@H](CCC(=O)O)C(=O)NCC(=O)N[C@@H](CO)C(=O)N[C@@H](CC(C)C)C(=O)N[C@@H](CCC(N)=O)C(=O)O` [human C-peptide], in series [1], the circulating half-life is 30 min. Besides, the level at time molar at 24 h in series [2] turned out to be 0.07 nM.
